Data: the supplement of paper PMC11208160

Assay: recombinant UMI read abundance after kanamycin selection (control-corrected) (log10(CPM+1)); higher = more efficient recombination; extreme values may be limits of the assay; sequences stand for … in AGTGCAGAGAAAATCGGCCAGTTTTCTCTGCCTGCAGTCCGCATGCCGTGGGACCCCTTGGGTTCTAACCTGTTGCCTAGATTTATGCAGCGGACTGCCTTTCTCCCAAAGTGATAAACCGG…AGGTTGGTTTCACT; site = the 11-nt donor
Protocol: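 Pooled E. coli donor-specificity screen for the IS621 bridge recombinase. Each library member carries a reprogrammed 11-nt donor and a full-length LE bridge RNA expressed in cis from the natural promoter, with a paired donor-binding loop (8-nt LDG + 4-nt RDG) and a target-binding loop fixed to T5. It is co-electroporated with a T5 target plasmid; recombinase is induced with 0.07 mM IPTG and recombinants are selected on kanamycin. UMIs are counted as CPM, averaged over two biological replicates and corrected by the unselected control. Molecule = full bridge RNA written as DNA, built from the T5 scaffold: LDG = donor specificity nt 1-8, RDG = reverse complement of nt 8-11.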
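Also: IS621 bridge recombinase in Escherichia coli cells against a fixed T5 target plasmid.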

“GTTGTTCCATGGACCGGTTTTCCCGGTAATCCGTATTTGAT (site GTTGTTCCTAG)” and “CCCGGTCCATGGACCGGTTTTCCCGGTAATCCGTATTTGCA (site CGCGGTCCTTG)” are the same in “recombinant UMI read abundance (log10)” value: 0 for the first, 0 for the second.

Compared with “GTTGTCCCATGGACCGGTTTTCCCGGTAATCCGTATTTGGT (site GTTGTCCCTAC)”, “CCCACATCATGGACCGGTTTTCCCGGTAATCCGTATTTGTC (site CCCACATCTGA)” is higher in “recombinant UMI read abundance (log10)” value: 0.0143 for the first, 0.453 for the second.

Compared with “GAGCTCACATGGACCGGTTTTCCCGGTAATCCGTATTTGAC (site GAGCTCACTAT)”, “CACTTGGCATGGACCGGTTTTCCCGGTAATCCGTATTTGGA (site CACCTGGCTTC)” is lower in “recombinant UMI read abundance (log10)” value: 1 for the first, 0.612 for the second.

“GATAGAACATGGACCGGTTTTCCCGGTAATCCGTATTTGGC (site GCTAGAACTGC)” and “GTGCATACATGGACCGGTTTTCCCGGTAATCCGTATTTGGT (site GTGCATTCTAC)” are within 0.2 log units of each other in “recombinant UMI read abundance (log10)” value: 0 for the first, 0.00888 for the second.

First: AGGAAGGCATGGACCGGTTTTCCCGGTAATCCGTATTTGCA (site AGGAAGACTTG)
Second: CTCTACACATGGACCGGTTTTCCCGGTAATCCGTATTTGCT (site CTCTATACTAG)
The “recombinant UMI read abundance (log10)” value of the first is higher: 1.98 for the first, 0.00765 for the second.

“GCGAAGCCATGGACCGGTTTTCCCGGTAATCCGTATTTGCG (site GCGAAGCCTCA)” and “TCAATTTCATGGACCGGTTTTCCCGGTAATCCGTATTTGGC (site TCAATTTCTGC)” are within 0.2 log units of each other in “recombinant UMI read abundance (log10)” value: 0.0182 for the first, 0 for the second.

“GGCCACCCATGGACCGGTTTTCCCGGTAATCCGTATTTGTT (site AGCCACCCTAA)” and “TGGGGTACATGGACCGGTTTTCCCGGTAATCCGTATTTGGG (site TGGGGTACTCC)” are within 0.2 log units of each other in “recombinant UMI read abundance (log10)” value: 0.0306 for the first, 0.0151 for the second.

“CACGGGCCATGGACCGGTTTTCCCGGTAATCCGTATTTGTT (site CACGGGCCTAA)” and “AACTATGCATGGACCGGTTTTCCCGGTAATCCGTATTTGGA (site AAATATGCTTC)” are within 0.2 log units of each other in “recombinant UMI read abundance (log10)” value: 0.574 for the first, 0.502 for the second.

Compared with “AGGAAGACATGGACCGGTTTTCCCGGTAATCCGTATTTGCA (site CGGAGGACTTG)”, “ATGTAGGCATGGACCGGTTTTCCCGGTAATCCGTATTTGAC (site ATGTAGGCTGG)” is higher in “recombinant UMI read abundance (log10)” value: 0.505 for the first, 1.57 for the second.

“CAAGCTCCATGGACCGGTTTTCCCGGTAATCCGTATTTGTG (site CAAGCTCCTCA)” and “GGTACGTCATGGACCGGTTTTCCCGGTAATCCGTATTTGTT (site GGTACCTCTAA)” are within 0.2 log units of each other in “recombinant UMI read abundance (log10)” value: 0.0252 for the first, 0.0198 for the second.

“CAGTTGGCATGGACCGGTTTTCCCGGTAATCCGTATTTGTG (site CAGTTGGCTCA)” and “CGTTCGGCATGGACCGGTTTTCCCGGTAATCCGTATTTGCT (site CGTTCGGCTAG)” are within 0.2 log units of each other in “recombinant UMI read abundance (log10)” value: 1.47 for the first, 1.63 for the second.

Going from “GTTGAGACATGGACCGGTTTTCCCGGTAATCCGTATTTGGT (site CTTGAGACTAC)” to “CTGCAACCATGGACCGGTTTTCCCGGTAATCCGTATTTGCT (site CTGCGACCTAG)”, the “recombinant UMI read abundance (log10)” value falls from 0.883 to 0.00379.

Compared with “GTTGAGACATGGACCGGTTTTCCCGGTAATCCGTATTTGGT (site GTTGAGACTAC)”, “GTGCAGGCATGGACCGGTTTTCCCGGTAATCCGTATTTGGT (site GTGCAAGCTAC)” is higher in “recombinant UMI read abundance (log10)” value: 0.775 for the first, 1.77 for the second.

“CTGATACCATGGACCGGTTTTCCCGGTAATCCGTATTTGTA (site CTGATACCTTA)” and “GTGCATGCATGGACCGGTTTTCCCGGTAATCCGTATTTGCT (site GTGCATGCTAC)” are within 0.2 log units of each other in “recombinant UMI read abundance (log10)” value: 0.00514 for the first, 0 for the second.

First: GATGTAGCATGGACCGGTTTTCCCGGTAATCCGTATTTGCG (site GATGTAGCTCG)
Second: ACTACTGCATGGACCGGTTTTCCCGGTAATCCGTATTTGCC (site CCTACTGCTGG)
The “recombinant UMI read abundance (log10)” value of the first is higher: 1.72 for the first, 1.45 for the second.

“CGATGACCATGGACCGGTTTTCCCGGTAATCCGTATTTGGG (site CGAAGACCTCC)” and “GACAAACCATGGACCGGTTTTCCCGGTAATCCGTATTTGGG (site GACAAACCTGC)” are within 0.2 log units of each other in “recombinant UMI read abundance (log10)” value: 0.00605 for the first, 0 for the second.

Compared with “ATTTAGACATGGACCGGTTTTCCCGGTAATCCGTATTTGCG (site ATTTAGACTCG)”, “GCGAAAACATGGACCGGTTTTCCCGGTAATCCGTATTTGCC (site GCGAAAACTCG)” is lower in “recombinant UMI read abundance (log10)” value: 1.16 for the first, 0 for the second.

Going from “GCAGGTGCATGGACCGGTTTTCCCGGTAATCCGTATTTGAT (site ACAGGTGCTAT)” to “CCAGCCCCATGGACCGGTTTTCCCGGTAATCCGTATTTGCC (site CCAGCCCCTGG)”, the “recombinant UMI read abundance (log10)” value falls from 2.52 to 0.451.

“AGGAAGACATGGACCGGTTTTCCCGGTAATCCGTATTTGCA (site GGGACGACTTG)” and “ATAACGCCATGGACCGGTTTTCCCGGTAATCCGTATTTGAC (site ATAATGCCTGT)” are within 0.2 log units of each other in “recombinant UMI read abundance (log10)” value: 0.00563 for the first, 0 for the second.

Going from “GCGCGCTCATGGACCGGTTTTCCCGGTAATCCGTATTTGAA (site GCGCGCTCTTT)” to “GAACTCACATGGACCGGTTTTCCCGGTAATCCGTATTTGAT (site GATCTCACTAT)”, the “recombinant UMI read abundance (log10)” value falls from 1.82 to 0.263.

“GCCACTGCATGGACCGGTTTTCCCGGTAATCCGTATTTGCC (site GCGACTGCTGG)” and “AACCGCCCATGGACCGGTTTTCCCGGTAATCCGTATTTGAT (site AACCGGCCTAT)” are within 0.2 log units of each other in “recombinant UMI read abundance (log10)” value: 0 for the first, 0.00971 for the second.

Going from “CCCAAAGCATGGACCGGTTTTCCCGGTAATCCGTATTTGAT (site CCGAAAGCTAT)” to “TAGGAATCATGGACCGGTTTTCCCGGTAATCCGTATTTGTG (site TAGGAATCTCA)”, the “recombinant UMI read abundance (log10)” value rises from 0 to 3.2.

First: GACCTCTCATGGACCGGTTTTCCCGGTAATCCGTATTTGTA (site GACCTCTCTTA)
Second: TGATAGACATGGACCGGTTTTCCCGGTAATCCGTATTTGGA (site TGATAGACTTC)
The “recombinant UMI read abundance (log10)” value of the first is higher: 2.09 for the first, 0.865 for the second.

“CTGGATACATGGACCGGTTTTCCCGGTAATCCGTATTTGCA (site CTGGATACTTG)” and “TAAGAATCATGGACCGGTTTTCCCGGTAATCCGTATTTGCG (site TATGAATCTCG)” are within 0.2 log units of each other in “recombinant UMI read abundance (log10)” value: 1.81 for the first, 1.97 for the second.

Compared with “CCAGGATCATGGACCGGTTTTCCCGGTAATCCGTATTTGCA (site ACAGTATCTTG)”, “GAGTATCCATGGACCGGTTTTCCCGGTAATCCGTATTTGCT (site GACTATCCTAG)” is higher in “recombinant UMI read abundance (log10)” value: 0 for the first, 0.506 for the second.

Compared with “ACACTAGCATGGACCGGTTTTCCCGGTAATCCGTATTTGCA (site ACAGTATCTTG)”, “GTTCGGGCATGGACCGGTTTTCCCGGTAATCCGTATTTGCA (site GTTCGTGCTTG)” is higher in “recombinant UMI read abundance (log10)” value: 0.00925 for the first, 0.33 for the second.

First: GCCACGCCATGGACCGGTTTTCCCGGTAATCCGTATTTGTT (site GCCACGCCTTA)
Second: TGCCGTACATGGACCGGTTTTCCCGGTAATCCGTATTTGCT (site AGCCGTACTAG)
The “recombinant UMI read abundance (log10)” value of the first is lower: 0.00385 for the first, 0.792 for the second.

“GCGCATGCATGGACCGGTTTTCCCGGTAATCCGTATTTGGT (site GAGCATGCTAC)” and “CTCCAAGCATGGACCGGTTTTCCCGGTAATCCGTATTTGAG (site CTCCAAGCTCT)” are within 0.2 log units of each other in “recombinant UMI read abundance (log10)” value: 0.595 for the first, 0.456 for the second.

In the case of “AGCACTACATGGACCGGTTTTCCCGGTAATCCGTATTTGAC (site AGAACTACTGT)”, the “recombinant UMI read abundance (log10)” value was 1.25.
